Key:
Format in all cases: cell-based, human
miR-200c = assay: Quantitative RT-PCR (TaqMan miRNA assay), cellular and secreted miRNA in LSMC; settings: primary leiomyoma cells
Protocol: (§1) Total RNA was extracted from LSMC using RNAzol (GeneCopoeia, Rockville, Md.) and their quantity and quality was determined (ND-1000 Spectrophotometer, NanoDrop Technologies, Wilmington, Del.) as previously described (Chuang & Khorram, “miR-200c Regulates IL8 Expression by Targeting IKBKB: A Potential Mediator of Inflammation in Leiomyoma Pathogenesis,” PloS one (2014) 9:e95370). For medium miRNA extraction, 5 pg of synthetic miR-1 from Caenorhabditis elegans (cel-miR-1) was added as a spike-in control for purification efficiency. Subsequently, 2 μg or 10 ng (for miRNA) was reverse transcribed using random primers for CCND1, CDK2, COL1A1, COL3A1, TGF-β3, DNMT1 and EZH2 or specific primers for miR-29c and miR-200c according to the manufacturer's guidelines (Applied Biosystems, Carlsbad, Calif.). Quantitative RT-PCR was carried out using SYBR gene expression master mix or TaqMan miRNA expression assays (Applied Biosystems). Reactions were incubated for 10 min at 95° C. followed by 40 cycles for 15 seconds at 95° C. and 1 min at 60° C. The level of mRNAs and expression of cellular and secreted miRNA was determined using the Invitrogen StepOne System with 18S, RNU6B and cel-miR-1 used for normalization respectively. All reactions were run in triplicate and relative expression was analyzed with the comparative cycle threshold method (2^−ΔΔCT) according to the manufacturer (Applied Biosystems). Values were expressed as fold change compared to the control group.

miR-29c = assay: as above; settings: for expression of miR-29c: primary leiomyoma cells; for miR-29c level: 48 hours, LSMC
Protocol: as §1

3′UTR of COL3A1 = assay: 3′UTR luciferase reporter assay in LSMC; settings: primary leiomyoma cells
Protocol: LSMC were seeded at 3.5×10^4 cells/well in 6-well plates and at sub-confluence were treated with Tranilast (200 μM) or DMSO as control for 48 hrs. Tranilast and DMSO-treated cells were then transfected with luciferase reporter plasmids (1 μg/well) containing 3′ UTR sequences for COL3A1 or CDK2 (GeneCopoeia, Inc., Rockville, Md.) using PureFection transfection reagent (System Biosciences, Inc., Palo Alto, Calif.). After 48 hrs of transfection Firefly and Renilla luciferase activities were measured using the Dual-Luciferase Reporter Assay System (Promega). Firefly luciferase activity was normalized to Renilla luciferase activity. The level of induction was reported as mean±SEM of three experiments and compared with a ratio in cells treated with DMSO independently set as 1.
FIG. 10A: The relative luciferase activity in LSMC treated with Tranilast (200 μM) or DMSO as control for 48 hrs prior to transfection with Renilla and Firefly luciferase reporter plasmids carrying a 3′UTR fragment of COL3A1, CDK2 or IL8 and incubated with Tranilast (200 μM) or DMSO containing medium after transfection for another 48 hrs. The relative luciferase activity is presented as the ratio of Firefly:Renilla as compared to DMSO which was independently set as 1. The results are presented as mean±SEM of at least three sets of independent experiments using LSMC isolated from 3 patients. FIG. 10B: Protein expression of COL3A1 and CDK2 was determined after transfection of anti-miR scrambled oligonucleotides (aNC) or anti-miR-29c oligonucleotides (a29c) in LSMC for 72 hrs with DMSO or Tranilast (200 μM) treatment for the last 48 hrs. GAPDH was used as loading control. The result is one representative of at least three sets of independent experiments using LSMC isolated from 3 patients. FIG. 10C: The bar graph presented the relative band densities as mean±SEM of at least three independent experiments. Inhibition of protein expression by Tranilast treatment was calculated relative to changes in corresponding DMSO controls in cells transfected with aNC or anti-miR-29c.

3′UTR of CDK2 = assay: 3′UTR luciferase reporter assay in LSMC; settings: primary leiomyoma cells

## Cc1ccc(=O)n(-c2ccccc2)c1 [Pirfenidone]
miR-200c; Pirfenidone 0.25 mg/ml
  expression of miR-200c: induce
miR-29c; Pirfenidone 0.25 mg/ml
  expression of miR-29c: induce
3′UTR of COL3A1; Pirfenidone 0.25 mg/ml
  activity of luciferase reporter containing 3′UTR of COL3A1: inhibit
3′UTR of CDK2; Pirfenidone 0.25 mg/ml
  activity of luciferase reporter containing 3′UTR of CDK2: inhibit

## CC(=O)Oc1ccccc1C(=O)O [Aspirin]
miR-29c; Aspirin 10 mM
  miR-29c level: not affected

## CCCCc1oc2ccccc2c1C(=O)c1cc(I)c(OCCN(CC)CC)c(I)c1 [amiodarone]
miR-29c; amiodarone 1 μM
  miR-29c level: not affected

## O=C(CC1NCCCC1O)Cn1cnc2cc(Br)c(Cl)cc2c1=O (centres unmarked) [Halofuginone]
miR-200c; Halofuginone 200 nM
  expression of miR-200c: induce
miR-29c; Halofuginone 200 nM
  expression of miR-29c: induce
3′UTR of COL3A1; Halofuginone 200 nM
  activity of luciferase reporter containing 3′UTR of COL3A1: inhibit
3′UTR of CDK2; Halofuginone 200 nM
  activity of luciferase reporter containing 3′UTR of CDK2: inhibit

## bleomycin
miR-29c; bleomycin 10 μg/ml
  miR-29c level: not affected

Source: patent publication US10517842B2, “Methods of modulating miRNA levels and compositions for use in the same” (Los Angeles Biomedical Research Institute at Harbor-UCLA …, priority 2017, dated 2019)
